From patent publication US8138191B2, “Inhibitor compounds and cancer treatment methods” (Critical Outcome Technologies Inc., priority 2007, dated 2012)
Like-named read-outs stand apart in the source and are kept apart here.

Tests used:
[1] = test system: total Akt protein in SHP-77 cells; test: Total Akt by western blot analysis, SHP-77; type: cell-based, human; settings: SHP-77, 250 nM, after 24 hrs
Protocol: Cell viability was determined at 24, 48, and 96 hrs by the trypan exclusion method. Whole cell lysates were prepared using standard procedures and fifty micrograms of lysate protein was separated on SDS-PAGE gels and analyzed by western blotting.
Cell viability was determined at 24, 48, and 96 h by the trypan exclusion method. Whole cell lysates were prepared using standard procedures and 50 μg of lysate protein was separated on SDS-PAGE gels and analyzed by western blotting.

[2] = test system: SHP77 cells; test: AKT/AKT2 siRNA then COTI-2, cell viability by MTT assay, SHP77; type: cell-based, human; settings: SHP 77
Protocol: Cell cultures were maintained under regular tissue culture conditions and passaged 1-2 times a week as recommended by ATCC. For siRNA experiments the manufacturer's conditions for growth and transfection were followed. All siRNA reagents for AKT and AKT2 transfections were obtained from Cell Signaling.
Cells were treated for 48 h with 0-100 ng of AKT or AKT2 siRNA before incubation with COTI-2 at various concentrations (0-500 nM). Following incubation for 48 h, cell viability was determined by MTT assay.

[3] = test system: DMS114 and SHP77 cells; test: Western blotting of AKT pSer473 and AKT phospho-protein targets; type: cell-based, human; settings: for mTOR phospho-Ser 2448: 300 nM, time course
Protocol: Routine laboratory methods were employed for the production of cellular lysates, protein quantification, SDS-PAGE and western blotting. All antibodies were obtained from Cell Signaling and Abcam. To determine total AKT & AKT2 in DMS114 cells, 5×10^4 cells were incubated for 48 h with 10-100 ng of AKT2 siRNA or a scrambled control oligonucleotide. Cells were lysed and 50 μg of protein was separated by SDS-PAGE and blotted with antibody to total AKT or AKT2.
The phospho-AKT status at Ser473 was determined in the presence of COTI-2 utilizing western blotting. […] The inhibition of AKT phosphorylation at Ser473 correlates with the reduction in the phosphorylation of GSK-3α/β (pSer21/9), which is a downstream target of activated phospho-AKT. […] The complete time course of the AKT phospho-Ser473 status in DMS114 and SHP77 cells during incubation with COTI-2 is documented in FIG. 39.
A complex relationship exists between Raptor- and Rictor-containing mTor complexes mTORC1 and mTORC2, respectively, and AKT. mTORC2 activates AKT by Ser473 phosphorylation; in turn, activated AKT phosphorylates TSC2, which prevents its interaction with Rheb and thus the hydrolysis of GTP associated with Rheb. As a result, Rheb-GTP activates mTOR by phosphorylation on Ser2448. […] The results shown in FIGS. 40-45 agree with this hypothesis. […] Phosphorylation of the PTEN C terminal was reported to stabilize PTEN and protect against ubiquitin-mediated degradation (Nat Rev Cancer, 6: 184-192). One implication of this observation is that COTI-2 may activate PTEN and thus, by reducing the amount of PIP3, contribute to the inhibition of AKT activity.

[4] = test system: AN3-CA human endometrial tumor xenograft; settings: for Maximum weight loss (%) (Day #): Day 21; for CS (Complete Shrinkage) / Deaths: N 10; for Mean days of Survival (Day ± SEM): end point of 2000 mg
Protocol: Female athymic nude mice (CrTac:NCR-Foxn1^nu) were supplied by Taconic (Germantown, N.Y.).
The dosing schedule for COTI-2 and the vehicle control was three times weekly until study end. […] When the mean tumor weight of each mouse reached an approximate end-point of 2000 mg, mice were sacrificed with regulated CO2.
The mean tumor shrinkage of each group was calculated and reported.

[5] = target: T1, CYP2C8 (Homo sapiens, UniProt P10632); test: in vitro; settings: both
T1 sequence (P10632 1-490): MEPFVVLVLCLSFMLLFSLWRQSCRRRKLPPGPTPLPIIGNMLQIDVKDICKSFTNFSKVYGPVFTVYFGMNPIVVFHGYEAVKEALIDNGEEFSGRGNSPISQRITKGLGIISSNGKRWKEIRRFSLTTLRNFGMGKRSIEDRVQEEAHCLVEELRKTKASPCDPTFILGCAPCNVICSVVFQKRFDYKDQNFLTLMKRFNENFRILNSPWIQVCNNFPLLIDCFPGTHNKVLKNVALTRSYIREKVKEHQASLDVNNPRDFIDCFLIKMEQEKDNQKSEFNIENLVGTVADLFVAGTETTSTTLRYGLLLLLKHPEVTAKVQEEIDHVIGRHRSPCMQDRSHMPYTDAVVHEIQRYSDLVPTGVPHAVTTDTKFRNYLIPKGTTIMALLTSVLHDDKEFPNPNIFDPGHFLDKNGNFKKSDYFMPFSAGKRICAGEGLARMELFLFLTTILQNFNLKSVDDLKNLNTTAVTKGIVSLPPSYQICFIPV

[6] = target: CYP3A (Homo sapiens, UniProt P08684); test: in vitro; settings: both
[7] = test system: HCT-116 human colon tumor xenograft; test: HCT-116 human colon tumor xenograft model; settings: for Deaths: N 10
[8] = COTI-2 12.5 mg/kg IV 3X Weekly to end
[9] = COTI-2 50.0 mg/kg IV 3X Weekly to end

Chain of CYP3A (P08684 2-503): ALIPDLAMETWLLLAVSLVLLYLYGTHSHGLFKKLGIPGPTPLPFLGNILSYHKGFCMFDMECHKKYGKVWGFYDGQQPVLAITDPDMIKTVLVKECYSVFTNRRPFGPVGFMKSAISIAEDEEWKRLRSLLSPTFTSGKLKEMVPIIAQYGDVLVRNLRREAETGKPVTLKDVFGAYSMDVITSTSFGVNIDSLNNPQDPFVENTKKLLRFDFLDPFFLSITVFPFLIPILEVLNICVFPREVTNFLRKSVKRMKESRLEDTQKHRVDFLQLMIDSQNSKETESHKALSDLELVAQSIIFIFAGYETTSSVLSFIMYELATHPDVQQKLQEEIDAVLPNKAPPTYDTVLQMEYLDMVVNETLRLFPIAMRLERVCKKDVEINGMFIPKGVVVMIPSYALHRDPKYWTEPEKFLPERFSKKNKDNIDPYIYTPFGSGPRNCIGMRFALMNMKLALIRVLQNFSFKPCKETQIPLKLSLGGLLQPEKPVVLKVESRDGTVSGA

S=C(N/N=C1/CCCc2cccnc21)N1CCN(c2ccccn2)CC1 [COTI-2]
total Akt protein [1]: decreased
cell death with total AKT or AKT2 siRNA, presence vs absence of COTI-2 [2]: no significant difference in cell death
phosphorylation of GSK-3α/β (pSer21/9) ([3]; 250 nM): reduction
AKT Ser473 phosphorylation ([3]; 250 nM, 2 h): profound inhibition
PTEN phospho-Ser380 ([3]; DMS114 cells): strong but transient increase
mTOR phospho-Ser 2448 ([3]; DMS114 cells): initial decrease in phospho-Ser 2448 at 2 hrs followed by a more sustained decrease at 24 and 48 hrs
mTOR phospho-Ser 2448 ([3]; SHP77 cells): only the decrease at 2 hrs of incubation was observed
Day 13 Mean tumor weight [4, 8]: 1,828.9 ± 265.8 mg
Maximum weight loss (%) (Day #) [4, 8]: 8.2% (Day 21)
CS (Complete Shrinkage) [4, 8]: 0
Deaths [4, 8]: 0
Mean days of Survival (Day ± SEM) [4, 8]: 16.7 ± 0.8 days
Day 13 Mean tumor weight [4, 9]: 1,542.7 ± 217.2 mg
Day 13 TGI [4, 9]: 7.8%
Maximum weight loss (%) (Day #) [4, 9]: 5.4% (Day 21)
CS (Complete Shrinkage) [4, 9]: 0
Deaths [4, 9]: 1
Mean days of Survival (Day ± SEM) [4, 9]: 17.2 ± 0.7 days
Mean days of Survival (Day ± SEM) ([4]; COTI-2 […] IV 3X Weekly to end): 15.8 ± 0.9 days
toxicity observations ([4]; mouse, in vivo, 50 mg/kg): lethargy and hypoactivity
tumor weights or survival compared to control ([4]; single agent, IV three times weekly): did not show any statistical differences in tumor weights or survival
inhibition at 15 min, 10 µM ([5]; human liver microsomes, pH 7.4, probe paclitaxel (10 µM)): 10%
inhibition at 15 min, 10 µM ([5]; liver microsomes, pH 7.4, probe paclitaxel): < 50%
inhibition at 15 min, 10 µM ([6]; human liver microsomes, pH 7.4, probe testosterone (10 µM)): -4%
inhibition at 15 min, 10 µM ([6]; liver microsomes, pH 7.4, probe testosterone): < 50%
Day 15 Mean tumor weight ([7]; COTI-2 12.5 mg/kg IV): 1,471.3 ± 155.9 mg
Mean survival (Day ± SEM) ([7]; COTI-2 12.5 mg/kg IV): 12.8 ± 0.76 days
Maximum weight loss (%) (Day #) ([7]; COTI-2 12.5 mg/kg IV, Day 17): 20.96%
Deaths ([7]; COTI-2 12.5 mg/kg IV): 1
Day 15 Mean tumor weight ([7]; COTI-2 50.0 mg/kg IV): 1,353.4 ± 127.3 mg
Mean survival (Day ± SEM) ([7]; COTI-2 50.0 mg/kg IV): 12.6 ± 0.83 days
Maximum weight loss (%) (Day #) ([7]; COTI-2 50.0 mg/kg IV, Day 22): 18.43%
Deaths ([7]; COTI-2 50.0 mg/kg IV): 2
